Data published in PMC7746945 (Neuro-Oncology, 2020).
Values joined by “and” are separate entries in the source; they are usually repeats but may differ in a detail not shown here. Equal entries are not always repeated.

How the values were obtained:
[1] = Olaparib PK in mice bearing intracranial G7 GBM xenografts (mass spectrometry); type: in vivo, CD1 nude mice; conditions: 50 mg/kg
Description: (§1) Canine kidney epithelial cells, stably expressing human MDR1 cDNA (Madin-Darby canine kidney type II [MDCKII]–MDR1 cells) or empty vector (MDCKII control), were used to model the intact BBB and determine permeability coefficients of (^14C)-olaparib in the presence of ketoconazole (25 μM). Whole body autoradiography was performed on male pigmented rats after single oral administration of [^14C]-olaparib (15 mg/kg; 5 MBq/kg). For autoradiography studies, animal care and experiments were carried out in accordance with AstraZeneca guidelines, which comply with UK standards. […] Xenograft experiments were performed under the relevant UK Home Office Project Licence and carried out with ethical approval from the University of Glasgow under the Animal (Scientific Procedures) Act 1986 and the EU directive 2010. Mice were maintained in individually ventilated cages with environmental enrichment and following the guidelines of ARRIVE (Animal Research: Reporting of In Vivo Experiments). […] Ratiometric t-test analysis determined SER confidence intervals and P-values. Further details are available in the Supplementary Material.
(§2) Apparent permeability coefficients were calculated for apical to basolateral (Papp a‒b) and basolateral to apical transport (Papp b‒a) as described in Methods. […] (B) Single oral doses of 15 mg/kg [14C]-olaparib were administered to male pigmented rats that were subsequently culled, sectioned, and subjected to whole body autoradiography at the timepoints shown. Radioactivity was excluded from the central nervous system in all animals at all timepoints. […] Blood, tumor, and contralateral (non tumor bearing) brain were harvested and snap frozen at the time points shown. […] Note different y-axis scales.

E2 cells = assay: Clonogenic survival radiosensitization assay; type: cell-based, human; conditions: E2, MGMT methylated, 1–5 Gy
Description: as §1
(§3) Visible colonies containing at least 50 cells were counted 14–21 days after treatment and surviving fraction calculated. The linear quadratic model was fitted using maximum likelihood estimation and integrated to determine the mean inactivation dose (MID) for each experimental condition.

G1 cells = assay: Clonogenic survival radiosensitization assay; type: cell-based, human; conditions: G1, MGMT methylated, olaparib 100 nM, 1–5 Gy
Description: as §1, §3

UVW cells = assay: Clonogenic survival radiosensitization assay; type: cell-based, human; conditions: MGMT methylated, 1–5 Gy
Description: as §1, §3

G7 cells = assay: Clonogenic survival radiosensitization assay; type: cell-based, human; conditions: G7, MGMT methylated, 1–5 Gy
Description: as §1, §3

T98G cells = assay: Clonogenic survival radiosensitization assay; type: cell-based, human; conditions: MGMT unmethylated, 1–5 Gy
Description: as §1, §3

R10 cells = assay: Clonogenic survival radiosensitization assay; type: cell-based, human; conditions: R10, MGMT methylated, 1–5 Gy
Description: as §1, §3

[2] = Directional transport of [14C]-olaparib across MDCKII control (empty vector) monolayers; type: in vitro ADME, canine; conditions: dog, MDCK
Description: as §1, §2
Monolayers were cultured in Dulbeco’s Modified Eagle Medium (DMEM) supplemented with glucose (4.5 g/L), 10% fetal calf serum, penicillin and streptomycin on semi-permeable filter inserts (Transwell plates 3401, Costar, Cambridge, MA) for three days. Under these conditions MDR1 localises to the apical plasma membrane. Monolayer integrity was assessed by transepithelial electrical resistance (TEER) measurement then inserts washed with Hank’s Balanced Salt Solution (HBSS) and transferred to 12-well plates containing HBSS (to measure apical to basal transport, a – b) or [14C]-olaparib diluted in HBSS (dose solution, to measure basal to apical transport, b – a). After addition of dose solution (a – b) or HBSS (b – a) to the apical chamber, samples of apical and basolateral compartments were collected immediately after dosing and after 120 minutes incubation. Three concentrations of 14C-olaparib were tested (0.1, 1 and 10 µM), each in three replicates. Radioactivity was determined by liquid scintillation counting. […] Transport of olaparib or reference substrate cimetidine was determined in MDCKII-BCRP cells. Apparent permeability coefficients (Papp) were calculated:
Efflux ratio = Papp b - a /a - b = Papp b - a / Papp a - b (mean)

recurrent GBM [3] = assay: DCE-MRI of tumor perfusion and permeability before and after olaparib; type: in vivo, human; conditions: stage 1 and dose expansion patients, cycle 0
Description: (§4) Secondary endpoints included PFS at 6 months (PFS-6, assessed radiologically using the RANO criteria) and radiological measurement of BBB permeability and perfusion by diffusion weighted and dynamic contrast-enhanced (DCE) MRI. […] Further details of the imaging protocol are provided in the Supplementary Material. Confidence intervals for PFS data were calculated using the exact binomial distribution.
The imaging protocol included four pre-contrast spoiled fast field echo (T1-FFE spoiled gradient echo) sequences with different flip angles (2o, 8o, 15o, 16-20o) for calculation of baseline T1 maps allowing estimation of contrast concentration from observed signal changes and a dynamic, contrast enhanced acquisition series with identical acquisition parameters as the 4th variable flip angle baseline T1 measurement (16-20o), consisting of 100-120 volumes with temporal spacing of 5.1-5.5 seconds (s). Gadolinium-based contrast agent (Gd-DTPA-BMA; Omniscan, GE Healthcare, Oslo, Norway) was injected by pressure injector as a 3 ml bolus at 4 ml/s (dose 0.1 mmol/kg) after acquisition of the seventh image volume, followed by saline flush. Data were analysed using the hybrid model [Li, Jackson Mag Res Med 2003] and in-house software. ROI placement was manual and enhancing pixels were identified through significant change in signal intensity following administration of contrast. […]

recurrent GBM [4] = assay: Efficacy: progression-free survival at 6 months (RANO); type: in vivo, human; conditions: olaparib with TMZ
Description: as §4

[5] = of 16 RP2D patients, olaparib with TMZ

O=C(c1cc(Cc2n[nH]c(=O)c3ccccc23)ccc1F)N1CCN(C(=O)C2CC2)CC1 [olaparib, 4-[3-(4-cyclopropanecarbonylpiperazine-1-carbonyl)-4-fluorobenzyl]-2H-phthalazin-1-one]
patients needing dose reductions for neutropenia (grade 3) and thrombocytopenia (grade 2) (cohort 1, olaparib with TMZ): 2 | DLT (cohort 3, olaparib with TMZ, one DLT): grade 3 vomiting | toxicity and tolerability of schedule (cohort 4, olaparib with TMZ, one patient): toxic death associated with pancytopenia, septic shock, and renal failure | grade 2 nausea, patients [5]: 1 | grade 2 pruritus, patients [5]: 1 | grade 2 vomiting, patients [5]: 1 | grade 3–4 anemia, patients [5]: 3 | grade 3–4 lymphopenia, patients [5]: 7 | grade 3–4 neutropenia, patients [5]: 2 | grade 3–4 thrombocytopenia, patients [5]: 4 | patients with grade 3–4 hematological toxicities [5]: 7 | effect on TMZ-related hematological toxicity (olaparib with TMZ): exacerbated | MTD / RP2D, olaparib dose (once daily, days 1–3 per week, with TMZ 75 mg/m^2 daily for 42 days): 150 mg | olaparib in contralateral hemisphere ([1]; 5 and 24 hours): undetectable | olaparib in tumor specimens ([1]; 5 hours): detectable in one tumor specimen | concentration at 2 h ([1]; CD1 nude, mouse, contralateral (non-tumor bearing) brain, oral, contralateral (non-tumor bearing) cerebral hemisphere olaparib concentration, median, 50 mg/kg oral gavage): 84 nM | concentration at 2 h ([1]; CD1 nude, mouse, contralateral (non-tumor bearing) brain, oral, contralateral (non-tumor bearing) cerebral hemisphere olaparib concentration, range, 50 mg/kg oral gavage): 53 to 114 nM | concentration at 2 h ([1]; CD1 nude, mouse, plasma, oral, plasma olaparib level, median, 50 mg/kg oral gavage): 1590 nM | concentration at 5 h ([1]; CD1 nude, mouse, plasma, oral, plasma olaparib level, median, 50 mg/kg oral gavage, 5 hours): 230 nM | concentration at 2 h ([1]; CD1 nude, mouse, plasma, oral, plasma olaparib level, range, 50 mg/kg oral gavage): 773 to 2830 nM | concentration at 2 h ([1]; CD1 nude, mouse, tumor, po, tumor olaparib concentration, median, intracranial G7 xenograft, 50 mg/kg oral gavage): 347 nM | concentration at 2 h ([1]; CD1 nude, mouse, tumor, po, tumor olaparib concentration, range, intracranial G7 xenograft, 50 mg/kg oral gavage, 4 mice): 110 to 2780 nM | SER (95% CI) 100nM (E2 cells; olaparib 100 nM): 1.237 (1.065 - 1.441) | SER (95% CI) 500nM (E2 cells; olaparib 500 nM): 1.221 (1.076 - 1.378) | SER (95% CI) 100nM (G1 cells): 1.225 (1.01 - 1.513) | SER (95% CI) 100nM (UVW cells; olaparib 100 nM): 1.478 (1.28 - 1.726) | SER (95% CI) 500nM (UVW cells; olaparib 500 nM): 1.695 (1.407 - 2.098) | SER (95% CI) 100nM (G7 cells; olaparib 100 nM): 1.105 (1.018 - 1.200) | SER (95% CI) 500nM (G7 cells; olaparib 500 nM): 1.188 (1.029 - 1.390) | SER (95% CI) 100nM (T98G cells; olaparib 100 nM): 1.42 (1.128 - 1.883) | SER (95% CI) 500nM (T98G cells; olaparib 500 nM): 1.584 (1.464 - 1.71) | SER (95% CI) 100nM (R10 cells; olaparib 100 nM): 1.266 (0.991 - 1.565) | SER (95% CI) 500nM (R10 cells; olaparib 500 nM): 1.281 (0.966 - 1.721) | Papp A→B at 120 min, 1 µM [2]: 1.66 ×10⁻⁶ cm/s | Papp A→B at 120 min, 3 µM [2]: 2.23 ×10⁻⁶ cm/s | Papp A→B at 120 min, 10 µM [2]: 2.46 ×10⁻⁶ cm/s | Papp B→A at 120 min, 1 µM [2]: 32 ×10⁻⁶ cm/s | Papp B→A at 120 min, 3 µM [2]: 29.7 ×10⁻⁶ cm/s | Papp B→A at 120 min, 10 µM [2]: 28.1 ×10⁻⁶ cm/s | changes in perfusion or permeability parameters between baseline and post-olaparib scans (recurrent GBM [3]): no significant changes | patients progression free at 6 months (PFS-6) (recurrent GBM [4]; evaluable patients): 36% and 39% | number of patients progression free at 6 months (recurrent GBM [4]; of 36 patients evaluable for efficacy): 14
